“And” between values parts separate entries of the source, which are not always exact repeats. Equal entries are not always repeated.
Tests used:
[1] = Test 2: weight of murine lymphoid organs after repeated oral administrations; assay type: in vivo, mice (male B6 D2 F1); settings: 100 mg/kg/day oral, 7 consecutive days; x ± S.E.
Description: Test 2: Evaluation of the effect of repeated oral administrations of ST 722 on the weight of murine lymphoid organs (spleen and thymus).
Male B6 D2 F1 mice (C. River) aged 7 weeks (7-8 animals each group) were orally treated with the substance ST 722 at the dose of 100 mg/kg/day for 7 consecutive days. Twenty-four hours after the last administration, the animals were sacrificed, the organs removed and weighed.

[2] = system: peritoneal macrophages; experiment: Test 4: peritoneal macrophage number in mice; assay type: in vivo, mice (male B6 D2 F1); settings: 100 mg/kg/day oral, 5 consecutive days
Description: Test 4: Evaluation of the effect of repeated oral administrations of ST 722 on the peritoneal macrophage number in mice.
Male B6 D2 F1 mice (C. River) aged 10 weeks (6 animals each group) were orally treated with the substance ST 722 at the dose of 100 mg/kg/day for 5 consecutive days. Twenty-four hours after the last administration, the animals were sacrificed, the peritoneal exudate cells (PEC) collected and the macrophage number determined.

[3] = system: Aspergillus fumigatus (1/A); experiment: MIC for filamentous fungi; assay type: cell-based; settings: read-out: Minimal Inhibitory Concentration (MIC)
How it was run: (§1)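 Inoculum was conidia from 72-hour Sabouraud agar cultures, washed off with Sabouraud medium plus Tween 80 (one drop per 10 ml) and used at 5.0×10^4 CFU/ml. The procedure followed the yeast-like fungi method, and MIC and MFC were read as reported previously.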

[4] = system: Aspergillus fumigatus (2/A); experiment: MIC for filamentous fungi; assay type: cell-based; settings: read-out: Minimal Inhibitory Concentration (MIC)
How it was run: as §1

[5] = system: Aspergillus fumigatus (ATCC 28212); experiment: MIC for filamentous fungi; assay type: cell-based; settings: ATCC28212, read-out: Minimal Inhibitory Concentration (MIC)
How it was run: as §1

[6] = system: Aspergillus fumigatus (C/1); experiment: MIC for filamentous fungi; assay type: cell-based; settings: read-out: Minimal Inhibitory Concentration (MIC)
How it was run: as §1

[7] = system: Aspergillus niger (ATCC 16404); experiment: MIC for filamentous fungi; assay type: cell-based; settings: ATCC16404, read-out: Minimal Inhibitory Concentration (MIC)
How it was run: as §1

[8] = system: Fusarium sp. (ISS 1); experiment: MIC for filamentous fungi; assay type: cell-based; settings: read-out: Minimal Inhibitory Concentration (MIC)
How it was run: as §1

[9] = system: Mucor mucedo (ATCC 7941); experiment: MIC for filamentous fungi; assay type: cell-based; settings: ATCC7941, read-out: Minimal Inhibitory Concentration (MIC)
How it was run: as §1

[10] = system: Penicillium sp. (1302); experiment: MIC for filamentous fungi; assay type: cell-based; settings: read-out: Minimal Inhibitory Concentration (MIC)
How it was run: as §1

[11] = system: C. albicans ISS 1; experiment: Experimental subcutaneous infection with Candida albicans in mice; assay type: in vivo, Candida albicans in mice (male CD1 outbred)
Description: Male CD1 outbred mice (IFFA Credo) aged 8 weeks were used (4 animals per group).
A pathogenic strain of Candida was used, namely C. albicans ISS 1.
The infected animals were treated with ST 722 dissolved in saline, and Miconazole diluted in saline from a stock solution containing 1% Dimethyl Formamide.
From an overnight broth culture of C. albicans in Sabouraud broth, a fungal suspension was prepared in sterile saline containing 5.0×10^5 cells/mi. An inoculum of 0.5 ml of this suspension was injected subcutaneously into the abdominal wall of each animal.
The compounds were then administered by subcutaneous injection in the same area of the fungal challenge at the dose of 50 mcg (in 0.2 ml of saline) immediately after the inoculum and following 48 and 96 hours (150 total mcg per animal).
Then, 48 hours following the last treatment (6 days after the challenge with Candida), the animals were sacrificed, and the abdominal wall as well as the peritoneum were dissected out.
The excised tissues were then homogenized in 5 ml of sterile saline with a Potter-Elvehjem tissue grinder. The resulting suspensions, appropriately diluted, where plated onto Petri dishes containing a selective agar medium (BIGGY agar), which allows to easily detect the yeast Colony Forming Units (CFU/ml).
The number of colonies scored in a series of dilutions for each single sample consents to calculate the number of yeast cells present in the infected tissue sample as follows: [formula] Where Zi is the number of dilutions performed, Ni is the number of plates prepared for each dilution, and Ci is the total number of yeast cells scored in each dilution.

[12] = system: C. albicans PG; experiment: Systemic experimental infection with Candida albicans in mice; assay type: in vivo, Candida albicans in mice (male CD1); settings: for % Mortality / Dead/Total: 60 days follow-up; for MST (mean survival time): range of variation in brackets, footnote p ≤ 0.05 (MannWithney "U" test), mark lost
Description: Male CD1 mice (C. River) aged 6 or 13 weeks were used (12-15 animals per group).
The pathogenic strain of Candida utilized, i.e. C. albicans PG, was able, when inoculated intravenously, to cause multiple renal lesions and systemic dissemination, provoking death of the animals within 40 days from the challenge.
A broth culture in Sabouraud broth is prepared from a 48-hour agar slant culture.
After incubation for 48 hours at 37° C., the broth culture is first washed 3 times with sterile saline, then adjusted to a concentration of 2.0×10^6 cells/ml. Volumes of 0.25 ml of this suspension are i.v. injected into the animals, with a resulting infective dose approximately corresponding to DL100.
ST 722 was administered per os following two different protocols:
I) 100 mg/kg administered at +2, +12, +24, +36 and +48 hours (i.e. 5 administrations in two days) with respect to the challenge.
II) 100 mg/kg administered twice daily on 6 consecutive days (i.e. 12 adimistrations) starting from day -2 to day +3 with respect to the day of inoculation (day 0).
After the challenge, the animals were followed up for 60 days, and the percent mortality as well as the mean survival time (MST) were evaluated. The statistical significance of the results was evaluated by means of Fisher "exact test" and Mann-Withney "U" test, respectively.

[13] = protocol I: 100 mg/kg per os at +2, +12, +24, +36, +48 hours
[14] = protocol II: 100 mg/kg per os twice daily, day -2 to day +3

For `CCCCCCCCCCCOC(=O)C[C@H](C[N+](C)(C)C)OC(=O)CC(C)C` [ST 722, isovaleryl-L-carnitine undecyl ester chloride], the Body weight [1] was 22.74 ± 0.37 g, the Spleen weight [1] was 77.88 ± 2.38 mg and the Thymus weight [1] was 52.88 ± 3.20 mg. For the same molecule, the “toxic effect in PEC macrophage population” value [2] was “No toxic effect has been observed”, the “PEC Mo” value ([2]; 6 pooled samples) was 63% and the Body weight ([2]; ± S.E., 6 animals) was 28.13 ± 1.30 g. The “increase in the peritoneal macrophages number” value ([2]; versus control) was “about 60%”, the MIC [3] was 12.5 µg/mL and the MIC [4] was 12.5 µg/mL. The MIC [5] was 12.5 µg/mL, the MIC [6] was 12.5 µg/mL and the MIC [7] was 12.5 µg/mL. It also gave an MIC [8] of 6.25 µg/mL, an MIC [9] of 50 µg/mL and an MIC [10] of 12.5 µg/mL. For the same molecule, the CFU/mouse ([11]; individual samples 1-4, 50 mcg s.c. at 0, 48 and 96 hours (150 total mcg per animal)) was “sterile and 1.36 × 10^2 CFU/mouse”, the “effect on the infection with Candida” value ([11]; s.c., 150 total mcg per animal) was “substantially inhibits the infection with Candida” and the “sterile samples out of 4” value ([11]; s.c., 150 total mcg per animal) was 3 samples. For the same molecule, the “protective effect” value ([12]; protocol I and II, per os) was “only in terms of MST prolongation”, the “% Mortality” value [12, 13] was 71.4% and the Dead/Total [12, 13] was 10/14. The “MST (mean survival time)” value ([12]; protocol I) was 37 (25-≥60) days, the “percent mortality” value ([12]; protocol II, per os) was “completely unaffected” and the “% Mortality” value [12, 14] was 71.4%. For the same molecule, the Dead/Total [12, 14] was 10/14 and the “MST (mean survival time)” value ([12]; protocol II) was 44 (32-≥60) days.

— patent US5525627A, “Esters of acyl carnitines with long-chain aliphatic alcohols and pharmaceutical compositions containing same having antimycotic activity” (Sigma-Tau Industrie Farmaceutiche Riunite S.p.A., priority 1992, dated 1996)
